Experimental data taken from ChEMBL document CHEMBL3351417, “Thiophene-3-carboxamide analogue of annonaceous acetogenins as antitumor drug lead” (Eur J Med Chem, 2014).

Experiments:
[1] = Growth inhibition of human HBC4 cells after 48 hrs by sulforhodamine B colorimetric assay; assay type: functional; conditions: HBC4, 48 h
[2] = Growth inhibition of human BSY1 cells after 48 hrs by sulforhodamine B colorimetric assay; assay type: functional; conditions: BSY-1, 48 h
[3] = Growth inhibition of human HBC5 cells after 48 hrs by sulforhodamine B colorimetric assay; assay type: functional; conditions: HBC5, 48 h
MCF7 = experiment: Growth inhibition of human MCF7 cells after 48 hrs by sulforhodamine B colorimetric assay; assay type: functional; conditions: MCF7, 48 h
MDA-MB-231 = experiment: Growth inhibition of human MDA-MB-231 cells after 48 hrs by sulforhodamine B colorimetric assay; assay type: functional; conditions: MDA-MB-231, 48 h
U-251 = experiment: Growth inhibition of human U251 cells after 48 hrs by sulforhodamine B colorimetric assay; assay type: functional; conditions: U-251, 48 h
SF-268 = experiment: Growth inhibition of human SF268 cells after 48 hrs by sulforhodamine B colorimetric assay; assay type: functional; conditions: SF-268, 48 h
[4] = Growth inhibition of human SF295 cells after 48 hrs by sulforhodamine B colorimetric assay; assay type: functional; conditions: SF-295, 48 h
[5] = Growth inhibition of human SF539 cells after 48 hrs by sulforhodamine B colorimetric assay; assay type: functional; conditions: SF-539, 48 h
SNB-75 = experiment: Growth inhibition of human SNB75 cells after 48 hrs by sulforhodamine B colorimetric assay; assay type: functional; conditions: SNB-75, 48 h
[6] = Growth inhibition of human SNB78 cells after 48 hrs by sulforhodamine B colorimetric assay; assay type: functional; conditions: SNB-78, 48 h
[7] = Growth inhibition of human HCC2998 cells after 48 hrs by sulforhodamine B colorimetric assay; assay type: functional; conditions: HCC 2998, 48 h
KM12 = experiment: Growth inhibition of human KM12 cells after 48 hrs by sulforhodamine B colorimetric assay; assay type: functional; conditions: KM12, 48 h
HT-29 = experiment: Growth inhibition of human HT-29 cells after 48 hrs by sulforhodamine B colorimetric assay; assay type: functional; conditions: HT-29, 48 h
[8] = Growth inhibition of human HCT15 cells after 48 hrs by sulforhodamine B colorimetric assay; assay type: functional; conditions: HCT-15, 48 h
[9] = Growth inhibition of human HCT116 cells after 48 hrs by sulforhodamine B colorimetric assay; assay type: functional; conditions: HCT-116, 48 h
NCI-H23 = experiment: Growth inhibition of human NCI-H23 cells after 48 hrs by sulforhodamine B colorimetric assay; assay type: functional; conditions: NCI-H23, 48 h
NCI-H226 = experiment: Growth inhibition of human NCI-H226 cells after 48 hrs by sulforhodamine B colorimetric assay; assay type: functional; conditions: NCI-H226, 48 h
NCI-H522 = experiment: Growth inhibition of human NCI-H522 cells after 48 hrs by sulforhodamine B colorimetric assay; assay type: functional; conditions: NCI-H522, 48 h
NCI-H460 = experiment: Growth inhibition of human NCI-H460 cells after 48 hrs by sulforhodamine B colorimetric assay; assay type: functional; conditions: NCI-H460, 48 h
A549 = experiment: Growth inhibition of human A549 cells after 48 hrs by sulforhodamine B colorimetric assay; assay type: functional; conditions: A549, 48 h
[10] = Growth inhibition of human DMS273 cells after 48 hrs by sulforhodamine B colorimetric assay; assay type: functional; conditions: DMS-273, 48 h
[11] = Growth inhibition of human DMS114 cells after 48 hrs by sulforhodamine B colorimetric assay; assay type: functional; conditions: DMS-114, 48 h
[12] = Growth inhibition of human LOXIMVI cells after 48 hrs by sulforhodamine B colorimetric assay; assay type: functional; conditions: LOX IMVI
[13] = Growth inhibition of human OVCAR3 cells after 48 hrs by sulforhodamine B colorimetric assay; assay type: functional; conditions: OVCAR-3, 48 h
[14] = Growth inhibition of human OVCAR4 cells after 48 hrs by sulforhodamine B colorimetric assay; assay type: functional; conditions: OVCAR-4, 48 h
[15] = Growth inhibition of human OVCAR5 cells after 48 hrs by sulforhodamine B colorimetric assay; assay type: functional; conditions: OVCAR-5, 48 h
[16] = Growth inhibition of human OVCAR8 cells after 48 hrs by sulforhodamine B colorimetric assay; assay type: functional; conditions: OVCAR-8, 48 h
SK-OV-3 = experiment: Growth inhibition of human SKOV3 cells after 48 hrs by sulforhodamine B colorimetric assay; assay type: functional; conditions: SK-OV-3, 48 h
[17] = Growth inhibition of human RXF631L cells after 48 hrs by sulforhodamine B colorimetric assay; assay type: functional; conditions: RXF 631, 48 h
ACHN = experiment: Growth inhibition of human ACHN cells after 48 hrs by sulforhodamine B colorimetric assay; assay type: functional
St-4 = experiment: Growth inhibition of human St-4 cells after 48 hrs by sulforhodamine B colorimetric assay; assay type: functional; conditions: St-4, 48 h
[18] = Growth inhibition of human MKN1 cells after 48 hrs by sulforhodamine B colorimetric assay; assay type: functional; conditions: MKN-1, 48 h
[19] = Growth inhibition of human MKN7 cells after 48 hrs by sulforhodamine B colorimetric assay; assay type: functional; conditions: MKN-7, 48 h
[20] = Growth inhibition of human MKN28 cells after 48 hrs by sulforhodamine B colorimetric assay; assay type: functional; conditions: MKN-28, 48 h
[21] = Growth inhibition of human MKN45 cells after 48 hrs by sulforhodamine B colorimetric assay; assay type: functional; conditions: MKN-45, 48 h
[22] = Growth inhibition of human MKN74 cells after 48 hrs by sulforhodamine B colorimetric assay; assay type: functional; conditions: MKN-74, 48 h
DU-145 = experiment: Growth inhibition of human DU145 cells after 48 hrs by sulforhodamine B colorimetric assay; assay type: functional; conditions: DU-145, 48 h
[23] = Growth inhibition of human PC3 cells after 48 hrs by sulforhodamine B colorimetric assay; assay type: functional; conditions: PC-3, 48 h
[24] = Toxicity in human NCI-H23 cells xenografted in mouse ip dosed on day 0 and day; assay type: organism-based; conditions: in vivo

| GI50 (MCF7) [µM] | GI50 (MDA-MB-231) [µM] | GI50 (U-251) [µM] | GI50 (HT-29) [µM] | GI50 (SK-OV-3) [µM] | GI50 (DU-145) [µM] | Compound | GI50 [1] [µM] | GI50 [2] [µM] | GI50 [3] [µM] | GI50 (SF-268) [µM] | GI50 [4] [µM] | GI50 [5] [µM] | GI50 (SNB-75) [µM] | GI50 [6] [µM] | GI50 [7] [µM] | GI50 (KM12) [µM] | GI50 [8] [µM] | GI50 [9] [µM] | GI50 [15] [µM] | GI50 [17] [µM] | further results |
| --- | --- | --- | --- | --- | --- | --- | --- | --- | --- | --- | --- | --- | --- | --- | --- | --- | --- | --- | --- | --- | --- |
| > 100 | > 100 | > 100 | > 100 | > 100 | > 100 | CCCCCCCCCCCC[C@@H](O)[C@H]1CC[C@H]([C@H](O)CCCCCCCCCCNC(=O)c2ccco2)O1 | > 100 | 0.49 | > 100 | > 100 | 33.9 | 81.3 | > 100 | > 100 | > 100 | > 100 | > 100 | 7.76 | > 100 | > 100 | GI50 (NCI-H23): 12.9 µM; GI50 (NCI-H226): 97.7 µM; GI50 (NCI-H522): 18.2 µM; GI50 (NCI-H460): 18.2 µM; GI50 (A549): > 100 µM; GI50 [10]: 39.8 µM; GI50 [11]: 0.282 µM; GI50 [12]: 17 µM; GI50 [13]: > 100 µM; GI50 [14]: 15.8 µM; GI50 [16]: > 100 µM; GI50 (ACHN): > 100 µM; GI50 (St-4): > 100 µM; GI50 [18]: > 100 µM; GI50 [19]: 0.832 µM; GI50 [20]: 0.617 µM; GI50 [21]: > 100 µM; GI50 [22]: 1.7 µM; GI50 [23]: > 100 µM |
| 26.9 | > 100 | > 100 | > 100 | > 100 | > 100 | CCCCCCCCCCCC[C@@H](O)[C@H]1CC[C@H]([C@H](O)CCCCCCCCCCNC(=O)c2ccoc2)O1 | > 100 | 2.19 | > 100 | > 100 | > 100 | > 100 | > 100 | > 100 | 79.4 | > 100 | > 100 | 3.47 | > 100 | > 100 | GI50 (NCI-H23): 3.02 µM; GI50 (NCI-H226): > 100 µM; GI50 (NCI-H522): 10 µM; GI50 (NCI-H460): > 100 µM; GI50 (A549): > 100 µM; GI50 [10]: > 100 µM; GI50 [11]: 0.191 µM; GI50 [12]: 21.9 µM; GI50 [13]: > 100 µM; GI50 [14]: 74.1 µM; GI50 [16]: 66.1 µM; GI50 (ACHN): > 100 µM; GI50 (St-4): 97.7 µM; GI50 [18]: > 100 µM; GI50 [19]: 0.372 µM; GI50 [20]: 0.55 µM; GI50 [21]: > 100 µM; GI50 [22]: 21.9 µM; GI50 [23]: 52.5 µM |

| Compound | GI50 (MCF7) [µM] | GI50 (MDA-MB-231) [µM] | GI50 (U-251) [µM] | GI50 (HT-29) [µM] | GI50 (SK-OV-3) [µM] | GI50 (DU-145) [µM] | GI50 [1] [µM] | GI50 [2] [µM] | GI50 [3] [µM] | GI50 (SF-268) [µM] | GI50 [4] [µM] | GI50 [5] [µM] | GI50 (SNB-75) [µM] | GI50 [6] [µM] | GI50 [7] [µM] | GI50 (KM12) [µM] | GI50 [8] [µM] | GI50 [9] [µM] | GI50 [15] [µM] | GI50 [17] [µM] | further results |
| --- | --- | --- | --- | --- | --- | --- | --- | --- | --- | --- | --- | --- | --- | --- | --- | --- | --- | --- | --- | --- | --- |
| CCCCCCCCCCCC[C@@H](O)[C@H]1CC[C@H]([C@H](O)CCCCCCCCCCNC(=O)c2ccnn2C)O1 |  |  | > 100 | > 100 | > 100 | > 100 | > 100 |  |  | > 100 | 10 |  | 50.1 | > 100 | > 100 | > 100 | > 100 |  | > 100 | > 100 | MTD [24]: 5 mg/kg |
